Measured values taken from ChEMBL document CHEMBL1806363, “New substrate analogue furin inhibitors derived from 4-amidinobenzylamide” (Bioorg Med Chem Lett, 2011).

These molecules were tested against Furin (Homo sapiens, UniProt P09958) (assay: Inhibition of recombinant human furin expressed in CHO cells using pyroGlu- Arg-Thr-Lys-Arg-AMC as the substrate after 30 mins).
Type: cell-based

Chain of Furin (P09958 whole entry): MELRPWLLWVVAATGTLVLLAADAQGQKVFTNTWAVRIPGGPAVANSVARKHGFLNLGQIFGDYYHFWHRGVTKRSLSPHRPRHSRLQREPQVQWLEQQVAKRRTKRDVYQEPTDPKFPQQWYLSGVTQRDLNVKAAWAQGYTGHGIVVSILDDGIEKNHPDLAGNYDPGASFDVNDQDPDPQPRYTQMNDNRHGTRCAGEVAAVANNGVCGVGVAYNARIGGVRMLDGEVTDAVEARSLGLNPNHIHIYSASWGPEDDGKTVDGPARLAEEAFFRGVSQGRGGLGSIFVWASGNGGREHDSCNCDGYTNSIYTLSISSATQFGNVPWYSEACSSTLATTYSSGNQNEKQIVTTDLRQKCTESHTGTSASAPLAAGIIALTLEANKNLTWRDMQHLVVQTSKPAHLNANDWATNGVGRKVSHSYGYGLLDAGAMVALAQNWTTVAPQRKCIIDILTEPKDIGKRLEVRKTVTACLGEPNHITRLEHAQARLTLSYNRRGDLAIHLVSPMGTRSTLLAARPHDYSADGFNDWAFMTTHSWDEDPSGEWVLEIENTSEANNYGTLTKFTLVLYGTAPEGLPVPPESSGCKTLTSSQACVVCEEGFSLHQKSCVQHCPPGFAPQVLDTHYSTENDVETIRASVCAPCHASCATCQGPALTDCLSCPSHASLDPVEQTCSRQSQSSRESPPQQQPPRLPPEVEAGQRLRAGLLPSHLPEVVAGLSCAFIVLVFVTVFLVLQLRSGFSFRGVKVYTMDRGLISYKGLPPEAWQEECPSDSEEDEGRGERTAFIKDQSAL

Ki [µM]	Structure (SMILES)
0.0037	N=C(N)c1ccc(CNC(=O)[C@H](CCCCN)NC(=O)[C@H](CN)NC(=O)[C@H](CCCN=C(N)N)NC(=O)Cc2ccccc2)cc1
3.2	NC(N)=NCCC[C@H](NC(=O)[C@@H](CCCN=C(N)N)NC(=O)Cc1ccccc1)C(=O)O
0.0015	CC(C)[C@H](NC(=O)[C@H](CCCN=C(N)N)NC(=O)Cc1ccccc1)C(=O)N[C@@H](CCCCN)C(=O)NCc1ccc(C(=N)N)cc1
7.34	CC(C)[C@H](NC(=O)Cc1ccccc1)C(=O)N[C@H](CCCN=C(N)N)C(=O)N[C@@H](CCCN=C(N)N)C(=O)NCc1ccc(C(=N)N)cc1
